Assay [1] deals with RA fibroblast-like synoviocytes (RA FLS). Nature of the assay: Caspase-3/7 activity assay in RA FLS. Type of assay: cell-based, human. The note with it: for increase of caspase activity: 48h TNFα treatment.
In the next assay the target is TAK1-TAB1-GFP (Homo sapiens, UniProt O43318). Nature of the assay: Elution of TAK1-TAB1-GFP from γ-linked ATP sepharose. The class given is binding. The note with it: lysate of HEK293T cells expressing TAK1-TAB1-GFP.
The subject of another assay is IL-8 secretion. Description: IL-8 ELISA in RA FLS. Type of assay: cell-based, human. Conditions: 24h treatment in the presence of TNFα.
For a further assay, the system named is IL-6 secretion. Description: IL-6 ELISA in RA FLS. The note with it: 24h treatment in the presence of TNFα, μM concentrations. The class given is cell-based, human.
In a further assay the test system is panel of other kinases. Conditions: ref J. Wu et al., 2013; cited from earlier work.
In another assay the target is MAP3K5/ASK1 (Homo sapiens, UniProt Q99683). Description: MRC Dundee kinase panel. The note with it: 10μM, Table S1.
Assay [2] relates to MDA-MB-231 cells. Description: Hoechst proliferation assay. Type of assay: cell-based, human.
Another assay relates to p38. Nature of the assay: MRC Dundee kinase panel. Conditions: 10μM.
The target in the next assay is IRAK1 (Homo sapiens, UniProt P51617). Description: MRC Dundee kinase panel / dose-response kinase assay. Type of assay: biochemical. The note with it: 10μM compound.
Chain of IRAK1 (P51617 whole entry): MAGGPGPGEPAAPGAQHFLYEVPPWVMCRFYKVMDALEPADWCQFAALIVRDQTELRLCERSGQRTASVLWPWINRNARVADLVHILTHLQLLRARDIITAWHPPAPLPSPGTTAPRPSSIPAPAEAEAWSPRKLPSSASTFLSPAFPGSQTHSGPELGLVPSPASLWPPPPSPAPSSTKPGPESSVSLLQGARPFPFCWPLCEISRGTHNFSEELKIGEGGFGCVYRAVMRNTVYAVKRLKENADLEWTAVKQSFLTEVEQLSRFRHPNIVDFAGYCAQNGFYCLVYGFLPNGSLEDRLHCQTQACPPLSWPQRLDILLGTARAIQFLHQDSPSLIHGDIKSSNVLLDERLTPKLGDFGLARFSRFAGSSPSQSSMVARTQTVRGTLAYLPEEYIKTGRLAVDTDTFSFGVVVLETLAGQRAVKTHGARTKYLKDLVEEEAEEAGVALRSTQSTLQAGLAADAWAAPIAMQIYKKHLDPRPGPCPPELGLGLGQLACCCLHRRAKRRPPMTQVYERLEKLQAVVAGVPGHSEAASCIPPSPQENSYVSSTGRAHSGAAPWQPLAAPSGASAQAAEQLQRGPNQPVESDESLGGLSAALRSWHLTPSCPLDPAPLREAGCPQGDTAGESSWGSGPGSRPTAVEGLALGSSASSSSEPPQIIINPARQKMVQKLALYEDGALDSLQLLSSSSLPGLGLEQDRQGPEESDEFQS
A further assay addresses MKK1/MAP2K1 (Homo sapiens, UniProt Q02750). Description: MRC Dundee kinase panel. The note with it: 10μM, Table S1.
Another assay has as its target MEKK1/MAP3K1 (Homo sapiens, UniProt Q13233). Nature of the assay: MRC Dundee kinase panel. The note with it: 10μM, Table S1.
The target of the next assay is CLK2 (Homo sapiens, UniProt P49760). Description: MRC Dundee kinase panel. The class given is biochemical. Conditions: 10μM compound.
Chain of CLK2 (P49760 whole entry): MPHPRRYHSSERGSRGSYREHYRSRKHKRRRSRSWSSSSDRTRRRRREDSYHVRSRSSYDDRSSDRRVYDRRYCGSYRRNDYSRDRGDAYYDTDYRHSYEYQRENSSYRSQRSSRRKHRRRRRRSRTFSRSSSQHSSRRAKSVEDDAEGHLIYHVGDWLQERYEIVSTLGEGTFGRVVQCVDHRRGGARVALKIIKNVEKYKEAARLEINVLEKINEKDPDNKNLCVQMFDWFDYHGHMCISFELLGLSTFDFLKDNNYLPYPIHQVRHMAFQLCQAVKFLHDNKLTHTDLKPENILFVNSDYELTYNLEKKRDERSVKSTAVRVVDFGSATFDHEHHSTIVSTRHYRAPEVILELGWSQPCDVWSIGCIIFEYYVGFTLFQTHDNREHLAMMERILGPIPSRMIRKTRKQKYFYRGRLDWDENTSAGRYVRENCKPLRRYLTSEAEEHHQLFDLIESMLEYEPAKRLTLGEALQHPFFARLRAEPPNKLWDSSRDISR
For the next assay, the target named is TAK1/MAP3K7 (Homo sapiens, UniProt O43318). Nature of the assay: MRC Dundee kinase panel / dose-response kinase assay. The class given is biochemical. Conditions: 10μM compound.
Assay [3] relates to MDA-MB-231 cells. Nature of the assay: Caspase-3/7 activity assay in MDA-MB-231 cells. Type of assay: cell-based, human.
A further assay deals with Src (Homo sapiens, UniProt P12931). Nature of the assay: MRC Dundee kinase panel. Conditions: 10μM.
Chain of Src (P12931 whole entry): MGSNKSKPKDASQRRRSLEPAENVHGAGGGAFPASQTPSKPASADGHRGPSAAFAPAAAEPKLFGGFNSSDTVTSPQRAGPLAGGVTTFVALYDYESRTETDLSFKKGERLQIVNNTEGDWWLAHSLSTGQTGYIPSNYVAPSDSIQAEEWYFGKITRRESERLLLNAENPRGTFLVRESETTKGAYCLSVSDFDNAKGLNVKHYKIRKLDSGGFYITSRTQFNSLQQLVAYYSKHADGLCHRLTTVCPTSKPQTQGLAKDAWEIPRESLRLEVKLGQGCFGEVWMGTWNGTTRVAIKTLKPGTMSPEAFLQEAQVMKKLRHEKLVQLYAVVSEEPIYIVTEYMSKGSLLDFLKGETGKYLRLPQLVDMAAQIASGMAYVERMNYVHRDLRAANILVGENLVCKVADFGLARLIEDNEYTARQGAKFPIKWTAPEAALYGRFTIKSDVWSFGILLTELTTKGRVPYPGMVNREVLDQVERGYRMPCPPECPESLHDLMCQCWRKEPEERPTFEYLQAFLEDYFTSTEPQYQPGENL
In a further assay the target is Yes1 (Homo sapiens, UniProt P07947). Description: MRC Dundee kinase panel. Conditions: 10μM.
Chain of Yes1 (P07947 whole entry): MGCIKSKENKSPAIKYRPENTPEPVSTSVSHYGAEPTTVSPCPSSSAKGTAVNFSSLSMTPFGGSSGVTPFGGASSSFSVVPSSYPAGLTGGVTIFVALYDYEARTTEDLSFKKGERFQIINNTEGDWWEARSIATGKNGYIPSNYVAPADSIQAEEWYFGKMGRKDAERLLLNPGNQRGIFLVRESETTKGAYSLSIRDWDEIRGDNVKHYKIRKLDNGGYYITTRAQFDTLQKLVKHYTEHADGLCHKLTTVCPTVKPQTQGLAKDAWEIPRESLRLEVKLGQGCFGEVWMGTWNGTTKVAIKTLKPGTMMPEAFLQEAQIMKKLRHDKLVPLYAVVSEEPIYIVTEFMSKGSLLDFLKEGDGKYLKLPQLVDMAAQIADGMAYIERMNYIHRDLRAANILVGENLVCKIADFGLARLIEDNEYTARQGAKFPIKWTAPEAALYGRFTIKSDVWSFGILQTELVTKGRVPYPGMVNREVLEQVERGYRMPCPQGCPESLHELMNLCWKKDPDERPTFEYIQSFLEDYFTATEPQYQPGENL
The target in another assay is IRAK4 (Homo sapiens, UniProt Q9NWZ3). Description: MRC Dundee kinase panel / dose-response kinase assay. The class given is biochemical. The note with it: 10μM compound.
Chain of IRAK4 (Q9NWZ3 whole entry): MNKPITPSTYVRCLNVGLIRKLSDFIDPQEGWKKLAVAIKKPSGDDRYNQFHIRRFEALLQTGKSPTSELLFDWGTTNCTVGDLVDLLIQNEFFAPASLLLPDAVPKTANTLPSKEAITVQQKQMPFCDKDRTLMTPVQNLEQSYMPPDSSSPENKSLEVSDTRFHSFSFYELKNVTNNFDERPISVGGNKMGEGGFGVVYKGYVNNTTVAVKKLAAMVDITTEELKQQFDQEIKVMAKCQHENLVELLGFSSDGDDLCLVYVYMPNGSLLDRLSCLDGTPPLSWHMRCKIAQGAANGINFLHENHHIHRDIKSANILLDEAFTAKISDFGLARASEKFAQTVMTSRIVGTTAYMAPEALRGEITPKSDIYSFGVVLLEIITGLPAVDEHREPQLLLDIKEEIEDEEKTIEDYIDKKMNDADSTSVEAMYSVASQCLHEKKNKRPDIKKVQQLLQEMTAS
In assay [4] the test system is phosphorylation of IKK, MAPK 8/9, and cJun. Nature of the assay: Western blot dose-dependency in Hela cells after TNFα stimulation. Type of assay: cell-based, human. The note with it: 15 minutes of TNFα stimulation.
In the next assay the target is MINK1 (Homo sapiens, UniProt Q8N4C8). Description: MRC Dundee kinase panel. The class given is biochemical. The note with it: 10μM compound.
In assay [5] the test system is TAK1 Thr184 phosphorylation. Description: Cellular TAK1 autophosphorylation after TNFα stimulation. Type of assay: cell-based. The note with it: 15min of TNFα stimulation.
The target in a further assay is T1, GCK/MAP4K2 (Homo sapiens, UniProt Q12851).
T1 sequence (Q12851 1-820): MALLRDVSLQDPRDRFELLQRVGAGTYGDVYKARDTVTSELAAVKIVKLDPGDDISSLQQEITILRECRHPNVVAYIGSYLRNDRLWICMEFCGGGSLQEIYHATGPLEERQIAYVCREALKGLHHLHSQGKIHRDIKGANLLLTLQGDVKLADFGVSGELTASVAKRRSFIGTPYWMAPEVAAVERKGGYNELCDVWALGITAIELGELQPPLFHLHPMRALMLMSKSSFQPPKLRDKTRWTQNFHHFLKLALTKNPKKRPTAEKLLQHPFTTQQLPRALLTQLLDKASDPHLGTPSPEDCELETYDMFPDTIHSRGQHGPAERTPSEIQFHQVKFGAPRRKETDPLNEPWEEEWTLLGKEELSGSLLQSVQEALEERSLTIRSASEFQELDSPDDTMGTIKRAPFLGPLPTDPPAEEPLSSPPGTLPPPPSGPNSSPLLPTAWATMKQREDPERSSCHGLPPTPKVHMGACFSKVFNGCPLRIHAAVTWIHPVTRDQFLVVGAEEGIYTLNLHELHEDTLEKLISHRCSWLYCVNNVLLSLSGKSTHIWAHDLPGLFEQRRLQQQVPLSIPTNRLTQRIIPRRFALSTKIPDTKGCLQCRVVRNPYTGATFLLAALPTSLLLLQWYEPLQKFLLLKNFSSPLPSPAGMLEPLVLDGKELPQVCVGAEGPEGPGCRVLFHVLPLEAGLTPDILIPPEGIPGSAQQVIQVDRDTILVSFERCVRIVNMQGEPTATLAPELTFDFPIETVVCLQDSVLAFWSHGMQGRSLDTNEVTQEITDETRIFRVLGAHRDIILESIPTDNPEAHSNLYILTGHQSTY
Description: MRC Dundee kinase panel / dose-response kinase assay.

For a further assay, the target named is MKK6/MAP2K6 (Homo sapiens, UniProt P52564). Nature of the assay: MRC Dundee kinase panel. Conditions: 10μM, Table S1.
Chain of MKK6/MAP2K6 (P52564 whole entry): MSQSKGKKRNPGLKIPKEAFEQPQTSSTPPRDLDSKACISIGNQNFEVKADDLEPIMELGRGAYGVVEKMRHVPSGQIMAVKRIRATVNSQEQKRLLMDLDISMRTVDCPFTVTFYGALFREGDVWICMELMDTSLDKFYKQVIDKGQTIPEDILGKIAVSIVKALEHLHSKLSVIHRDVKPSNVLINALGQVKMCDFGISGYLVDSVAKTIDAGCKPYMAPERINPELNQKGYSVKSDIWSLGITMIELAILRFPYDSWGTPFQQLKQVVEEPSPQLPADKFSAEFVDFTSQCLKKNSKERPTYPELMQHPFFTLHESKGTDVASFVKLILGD
Assay [6] deals with phosphorylation status of IKK, p38, and p65. Description: Western blot of TNFα signaling downstream of TAK1 in MDA-MB-231 cells. The class given is cell-based, human. Conditions: 10μM pre-treatment 2h, TNFα time-course 60min.

Molecules are shown by their SMILES.

Chain of MKK1/MAP2K1 (Q02750 whole entry): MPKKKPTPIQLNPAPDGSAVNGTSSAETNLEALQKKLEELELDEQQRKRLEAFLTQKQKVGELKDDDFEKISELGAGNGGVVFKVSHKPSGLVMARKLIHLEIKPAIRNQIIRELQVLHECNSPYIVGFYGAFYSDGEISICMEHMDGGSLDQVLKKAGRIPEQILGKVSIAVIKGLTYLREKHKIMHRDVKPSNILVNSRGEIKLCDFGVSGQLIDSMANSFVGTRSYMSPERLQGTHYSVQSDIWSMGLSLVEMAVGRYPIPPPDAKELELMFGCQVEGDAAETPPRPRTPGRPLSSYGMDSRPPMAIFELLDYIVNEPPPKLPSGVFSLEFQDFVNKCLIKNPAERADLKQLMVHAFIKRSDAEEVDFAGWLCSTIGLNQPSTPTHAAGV
Chain of MEKK1/MAP3K1 (Q13233 whole entry): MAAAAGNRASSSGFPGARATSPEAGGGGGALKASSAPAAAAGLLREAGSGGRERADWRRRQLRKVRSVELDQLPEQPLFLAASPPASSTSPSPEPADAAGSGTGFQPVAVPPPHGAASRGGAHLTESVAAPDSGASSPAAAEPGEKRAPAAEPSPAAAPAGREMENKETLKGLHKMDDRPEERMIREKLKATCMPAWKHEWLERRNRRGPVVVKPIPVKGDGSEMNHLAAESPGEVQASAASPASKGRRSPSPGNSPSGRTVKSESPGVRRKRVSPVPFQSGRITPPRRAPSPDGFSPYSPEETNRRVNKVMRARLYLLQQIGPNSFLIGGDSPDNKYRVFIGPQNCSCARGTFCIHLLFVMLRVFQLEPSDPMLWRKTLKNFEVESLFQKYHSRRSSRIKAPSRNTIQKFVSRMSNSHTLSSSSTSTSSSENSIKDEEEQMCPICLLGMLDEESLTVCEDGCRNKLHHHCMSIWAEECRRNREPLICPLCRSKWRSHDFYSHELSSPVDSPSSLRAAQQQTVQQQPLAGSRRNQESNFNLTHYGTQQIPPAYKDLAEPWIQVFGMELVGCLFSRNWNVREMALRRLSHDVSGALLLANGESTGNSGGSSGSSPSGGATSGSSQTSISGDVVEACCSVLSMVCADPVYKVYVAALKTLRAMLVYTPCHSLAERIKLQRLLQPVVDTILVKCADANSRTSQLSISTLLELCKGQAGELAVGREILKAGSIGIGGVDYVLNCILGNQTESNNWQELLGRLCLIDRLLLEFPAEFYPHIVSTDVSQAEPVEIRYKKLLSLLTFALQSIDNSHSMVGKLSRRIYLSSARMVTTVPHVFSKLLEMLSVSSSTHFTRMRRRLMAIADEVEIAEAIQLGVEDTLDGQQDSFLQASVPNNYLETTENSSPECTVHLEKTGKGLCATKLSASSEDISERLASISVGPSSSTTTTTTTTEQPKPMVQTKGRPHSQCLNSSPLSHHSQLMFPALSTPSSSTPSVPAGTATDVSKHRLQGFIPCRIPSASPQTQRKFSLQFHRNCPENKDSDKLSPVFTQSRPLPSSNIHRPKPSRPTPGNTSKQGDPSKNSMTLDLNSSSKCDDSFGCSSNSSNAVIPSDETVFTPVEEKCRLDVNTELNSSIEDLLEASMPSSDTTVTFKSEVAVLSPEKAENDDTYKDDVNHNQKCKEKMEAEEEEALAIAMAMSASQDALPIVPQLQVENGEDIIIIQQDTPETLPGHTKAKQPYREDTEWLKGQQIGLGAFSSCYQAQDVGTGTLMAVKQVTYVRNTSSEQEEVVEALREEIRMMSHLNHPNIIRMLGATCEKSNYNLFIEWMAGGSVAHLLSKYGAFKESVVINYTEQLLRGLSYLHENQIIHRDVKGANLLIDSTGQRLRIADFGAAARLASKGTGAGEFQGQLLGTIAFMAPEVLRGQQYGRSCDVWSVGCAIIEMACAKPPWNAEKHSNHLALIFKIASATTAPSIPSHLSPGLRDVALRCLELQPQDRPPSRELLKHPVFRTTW

As for `CCn1c(NC(=O)c2cccc(C(=O)O)c2)nc2ccccc21` [Compound 5, 3-((1-ethyl-1H-benzo[d]imidazol-2-yl)carbamoyl)benzoic acid], in assay [1], the “increase of caspase activity” value is recorded as “marginal”.
`COc1cc(O)c2c(c1)/C=C/C[C@H](O)[C@H](O)C(=O)/C=C\C[C@H](C)OC2=O` [Compound 5ZO, (5Z)-7-oxozeaenol, reference compound]: the “elution profile from ATP sepharose” value at TAK1-TAB1-GFP is listed as “additional bands were present”. The “potency in IL-8 secretion experiments” value with IL-8 secretion is listed as “significantly more potent than the other compounds”. Also, the “inhibition of IL-6 secretion” value in the assay with IL-6 secretion is “significantly more potent than the other compounds”. Further, the “number of other kinases potently inhibited” value in the assay on panel of other kinases is reported as “at least 50”. In assay [1] (10ng/ml TNFα, 48h, concentrations above 1μM), the caspase induction result is “reduces caspase induction”.
Turning to `C[C@@H]1CCN(C(=O)CC#N)C[C@@H]1N(C)c1ncnc2[nH]ccc12` [tofacitinib, reference compound], the “reduction of IL-8 secretion” value with IL-8 secretion amounted to 40%. Moreover, the “increase of caspase activity” value in assay [1] is “no effect”.
Take `CCCn1c(NC(=O)c2cccc(C(N)=O)c2)nc2ccccc21` [Takinib, N-(1-Propyl-1H-benzo[d]imidazol-2-yl)isophthalamide]: the “inhibition in kinome profiling” value at MAP3K5/ASK1 is “no efficacy”; with p38, “completely insensitive”; at MKK1/MAP2K1, “does not inhibit”; at MEKK1/MAP3K1, “does not inhibit”; at MKK6/MAP2K6, “does not inhibit”. Besides, on TAK1-TAB1-GFP, the “elution profile from ATP sepharose” value is recorded as “eluted TAK1-TAB1-GFP quite selectively”. Further, the “cell proliferation (DNA content)” value is “cells remain viable” in the assay on MDA-MB-231 cells [2] (TNFα not present) and “dose-dependent reduction of DNA content” with MDA-MB-231 cells [2] (TNFα-stimulated, 24h). Moreover, the “enzyme activity after exposure” value at IRAK1, at CLK2, at TAK1/MAP3K7, on IRAK4, at MINK1 and at GCK/MAP4K2 (10μM compound) was less than 10% each time. Also, the “reduction of IL-8 secretion” value in the assay on IL-8 secretion is reported as 40%. Besides, the “caspase 3/7 activity” value with MDA-MB-231 cells [3] (TNFα-stimulated, serum-starved cells, titrations) was “induced caspase activity in MDA-MB-231cells in a dose-dependent manner”; in the assay on MDA-MB-231 cells [3] (unstimulated cells (no TNFα)), “did not upregulate caspase activity”. The “inhibition of IL-6 secretion” value in the assay on IL-6 secretion is “almost complete inhibition”. The “inhibition in initial kinome profiling” value on Src and on Yes1 was “only weakly inhibited” in each case. In assay [4], the “phosphorylation of IKK, MAPK 8/9, cJun” value was “inhibits phosphorylation of IKK, MAPK 8/9, and cJun in a dose-dependent manner”. In addition, the Thr184 phosphorylation result in assay [5] is on record as “significantly reduced at low μM concentrations”. This molecule also displayed an IC50 at GCK/MAP4K2 of 0.45 µM. On GCK/MAP4K2, the “lower potency on GCK compared to TAK1” value is given as 45 fold. Further, the caspase activity result in [1] (24h treatment with TNFα) is listed as “did not observe a dose-dependent effect on caspase activity”. In addition, in assay [1] (48h, 10 and 30ng/ml TNFα), the “apoptosis (caspase 3/7 activity)” value is “apoptosis was observed in the 10 and 30ng/ml groups in a dose-dependent manner”. The “increase of caspase activity” value in [1] turned out to be 33%. For the same molecule, the “phosphorylation of IKK, p38, p65” value in [6] is listed as “reduced phosphorylation”.
`CCn1c(NC(=O)c2cccc(C(N)=O)c2)nc2ccccc21` [Compound 4, N-(1-ethyl-1H-benzo[d]imidazol-2-yl)isophthalamide]: the “reduction of IL-8 secretion” value in the assay with IL-8 secretion is reported as 40%. Also, the “increase of caspase activity” value in [1] is 33%.

Source of the values: publication PMC5576570 (Cell chemical biology, 2017).
